Experimental data: patent US10150728B2, “Alkylene derivatives” (Shionogi & Co., Ltd., priority 2013, dated 2018)
pIC50: −log10 of the molar value.

Molecular target: recombinant human ACC2 (Homo sapiens (Human), UniProt O00763)
Assay: Measurement of inhibitory activity on human ACC2 (MALDI-TOF MS, acetyl CoA to malonyl CoA conversion)
Format: biochemical
Details: Table 154
Source text: Preparation 1: Preparation of Recombinant Human ACC2
After a cDNA encoding human ACC2 (27 amino acid residue to 2458 amino acid residues from the N-terminus) was cloned from human kidney cDNA library (Clontech), human ACC2 gene containing His-tag sequence at 5′ terminus was inserted into pFastBac1 (Invitrogen). Recombinant baculovirus was generated using Bac-to-Bac baculovirus expression system (Invitrogen) according to the manufacturer's protocol. To express human ACC2, Sf-9 cells were infected with recombinant baculovirus. After infected cells were disrupted, the filtrated lysate was subjected to Ni-affinity chromatography and anion-exchange chromatography. The fractions containing human ACC2 protein were pooled as recombinant human ACC2 solution.
The Measurement of Inhibitory Activity on Human ACC1 and the ACC2
Recombinant human ACC1 and recombinant human ACC2, which were prepared by the method mentioned above, were preincubated with assay buffer solution (50 mM HEPES-KOH (pH 7.4), 10 mM magnesium chloride, 6-10 mM potassium citrate, 4 mM reduced form of glutathione, 1.5 mg/ml bovine serum albumin) for one hour. Then, 0.2 μL of each this invention compound solution (in DMSO) were dispensed to 384-well microplate, 5 μL of the preincubated enzyme solution and 5 μL of substrate solution (50 mM HEPES-KOH (pH 7.4), 1 mM ATP, 0.8 mM acetyl CoA and 25-50 mM potassium bicarbonate) were added to microplate. After centrifugation and shaking, the reaction mixtures were incubated in a humidified box at room temperature for 1 to 3 hours. After the incubation, the enzyme reactions were stopped by the addition of EDTA. Then, after the samples were cocrystallized with CHCA (α-cyano-4-hydroxy cinnamic acid) matrices on MALDI target plate, by using the matrix assist laser […] time-of-flight mass spectrometer (MALDI-TOF MS), samples were measured in reflector negative mode. Deprotonated ions of acetyl CoA (AcCoA) of substrate and malonyl CoA (MalCoA) of the reaction product were detected, then, the conversion rates of acetyl CoA to malonyl CoA was calculated by the intensity of [MalCoA-H]−/(Intensity of [MalCoA-H]−+Intensity of [AcCoA-H]−) using each signal strength. […] In addition, potassium citrate concentrations in assay buffer solution, potassium hydrogen carbonate concentrations in substrate solution and incubation time were adjusted by each lot of enzyme.

Chain of recombinant human ACC2 (O00763 27-2458): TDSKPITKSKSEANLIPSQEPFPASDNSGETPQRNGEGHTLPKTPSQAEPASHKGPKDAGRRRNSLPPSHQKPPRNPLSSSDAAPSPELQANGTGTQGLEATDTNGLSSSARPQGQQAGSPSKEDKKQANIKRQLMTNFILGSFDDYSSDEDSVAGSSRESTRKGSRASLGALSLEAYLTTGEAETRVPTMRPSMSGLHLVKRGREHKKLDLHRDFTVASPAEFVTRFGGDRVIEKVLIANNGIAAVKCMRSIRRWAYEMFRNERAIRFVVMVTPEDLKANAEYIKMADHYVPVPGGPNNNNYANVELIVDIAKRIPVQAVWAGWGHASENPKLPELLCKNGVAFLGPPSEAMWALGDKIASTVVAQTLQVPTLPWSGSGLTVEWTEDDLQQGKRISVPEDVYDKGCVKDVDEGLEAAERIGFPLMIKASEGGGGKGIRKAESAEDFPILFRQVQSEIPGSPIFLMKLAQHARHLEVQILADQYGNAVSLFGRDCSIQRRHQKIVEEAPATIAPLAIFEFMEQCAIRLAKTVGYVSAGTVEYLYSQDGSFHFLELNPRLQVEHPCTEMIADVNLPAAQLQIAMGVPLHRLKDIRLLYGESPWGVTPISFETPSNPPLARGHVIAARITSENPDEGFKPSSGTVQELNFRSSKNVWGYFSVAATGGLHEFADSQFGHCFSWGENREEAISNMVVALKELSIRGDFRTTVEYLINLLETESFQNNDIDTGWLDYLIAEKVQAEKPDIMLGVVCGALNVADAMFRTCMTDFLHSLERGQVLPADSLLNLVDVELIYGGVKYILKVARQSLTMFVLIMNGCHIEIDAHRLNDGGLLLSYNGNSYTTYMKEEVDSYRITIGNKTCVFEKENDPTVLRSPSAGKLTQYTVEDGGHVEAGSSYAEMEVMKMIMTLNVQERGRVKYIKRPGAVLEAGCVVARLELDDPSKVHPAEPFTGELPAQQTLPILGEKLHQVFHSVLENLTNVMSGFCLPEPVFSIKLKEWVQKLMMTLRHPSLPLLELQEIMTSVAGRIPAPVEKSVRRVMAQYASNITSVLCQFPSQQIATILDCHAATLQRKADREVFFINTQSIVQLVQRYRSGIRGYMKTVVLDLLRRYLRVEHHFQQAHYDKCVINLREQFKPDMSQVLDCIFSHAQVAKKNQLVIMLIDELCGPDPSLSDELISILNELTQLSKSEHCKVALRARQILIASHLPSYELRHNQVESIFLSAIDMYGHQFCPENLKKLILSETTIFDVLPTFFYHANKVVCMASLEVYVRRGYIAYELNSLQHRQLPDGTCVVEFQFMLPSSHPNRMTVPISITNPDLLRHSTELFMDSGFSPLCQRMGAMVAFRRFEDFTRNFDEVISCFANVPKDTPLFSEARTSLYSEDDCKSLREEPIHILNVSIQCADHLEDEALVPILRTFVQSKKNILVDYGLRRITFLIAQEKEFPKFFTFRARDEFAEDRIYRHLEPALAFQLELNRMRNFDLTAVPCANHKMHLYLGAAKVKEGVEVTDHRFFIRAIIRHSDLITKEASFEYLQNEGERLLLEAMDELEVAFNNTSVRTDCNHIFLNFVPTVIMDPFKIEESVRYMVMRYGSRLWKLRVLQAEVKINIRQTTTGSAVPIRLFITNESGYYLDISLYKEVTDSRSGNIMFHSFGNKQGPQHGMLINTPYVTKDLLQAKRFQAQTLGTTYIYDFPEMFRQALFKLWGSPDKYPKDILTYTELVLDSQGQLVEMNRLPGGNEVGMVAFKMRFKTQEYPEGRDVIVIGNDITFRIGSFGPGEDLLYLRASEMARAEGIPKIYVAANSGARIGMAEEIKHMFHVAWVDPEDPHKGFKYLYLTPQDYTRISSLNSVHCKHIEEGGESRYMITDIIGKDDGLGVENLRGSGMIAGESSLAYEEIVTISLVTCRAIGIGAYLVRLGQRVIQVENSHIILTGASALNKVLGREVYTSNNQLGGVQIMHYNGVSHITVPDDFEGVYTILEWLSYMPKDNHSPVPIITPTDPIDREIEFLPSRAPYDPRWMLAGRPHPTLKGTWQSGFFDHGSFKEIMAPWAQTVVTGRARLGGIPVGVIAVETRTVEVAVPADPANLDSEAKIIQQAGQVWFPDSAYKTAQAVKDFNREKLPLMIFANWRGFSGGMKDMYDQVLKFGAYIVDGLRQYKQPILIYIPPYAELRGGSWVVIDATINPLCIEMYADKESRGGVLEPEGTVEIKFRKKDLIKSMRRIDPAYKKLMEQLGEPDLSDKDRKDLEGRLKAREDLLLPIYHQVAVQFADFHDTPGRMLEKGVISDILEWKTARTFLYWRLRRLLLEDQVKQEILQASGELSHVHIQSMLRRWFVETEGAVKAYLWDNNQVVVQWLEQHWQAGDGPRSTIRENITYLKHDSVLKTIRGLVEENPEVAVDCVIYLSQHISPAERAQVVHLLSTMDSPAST

pIC50	Structure (SMILES)
5.42	CC(=O)N[C@@H](C)COc1cnc(Oc2ccc3c(c2Cl)OCCN(C(C)C)C3=O)cn1 [Compound I-082]
6.45	CCOc1nc2ccc(O[C@H]3CC[C@](C)(OC[C@H](C)NC(C)=O)CC3)c(Cl)c2s1 [Compound I-083]
7.38	CCOc1nc2ccc(OC[C@H]3C[C@@H](OC[C@H](C)NC(C)=O)C3)c(F)c2s1 [Compound I-086]
7.19	CCOc1nc2ccc(OC[C@H]3C[C@@H](OC[C@H](C)NC(C)=O)C3)c(Cl)c2s1 [Compound I-087]
7.82	CCOc1nc2ccc(OC[C@H]3C[C@H](OC[C@H](C)NC(C)=O)C3)c(F)c2s1 [Compound I-088]
7.21	CCOc1nc2ccc(OC[C@H]3C[C@H](OC[C@H](C)NC(C)=O)C3)c(Cl)c2s1 [Compound I-089]
7.35	CC(=O)N[C@@H](C)COc1cnc(Oc2ccc(C(=O)Nc3ccc(F)cc3)c(F)c2F)cn1 [Compound I-090]
7.05	CCOc1nc2ccc(Oc3cnc(OC[C@H](CO)NC(C)=O)cn3)c(F)c2s1 [Compound I-092]
6.73	CC(=O)N[C@@H](C)CO[C@H]1CC[C@H](Oc2ccc3c(c2Cl)OCCN(CC(F)(F)F)C3=O)CC1 [Compound I-094]
5.98	CC(=O)N[C@@H](C)COc1cnc(Oc2ccc(C(=O)NCC(C)C)c(F)c2F)cn1 [Compound I-095]
6.11	CC(=O)N[C@@H](C)COc1cnc(Oc2ccc(C(=O)N3CCCCC3)c(F)c2F)cn1 [Compound I-096]
7.01	CC(=O)N[C@@H](C)CO[C@H]1C[C@H](COc2ccc3nc(C(C)(F)F)sc3c2F)C1 [Compound I-097]
6.83	CC(=O)N[C@@H](C)CO[C@H]1C[C@H](COc2ccc3nc(C(C)(C)O)sc3c2F)C1 [Compound I-099]
7.57	CCOc1nc2cc(Cl)c(OC[C@H]3C[C@H](OC[C@H](C)NC(C)=O)C3)cc2s1 [Compound I-100]
7.59	CCOc1nc2ccc(OC[C@H]3C[C@H](OC[C@H](C)NC(C)=O)C3)cc2s1 [Compound I-101]
7.36	CC(=O)N[C@@H](C)CO[C@H]1CC[C@H](Oc2ncc(-c3ccccc3)cc2F)CC1 [Compound I-102]
7.92	CC(=O)N[C@@H](C)CO[C@H]1CC[C@H](Oc2ncc(-c3ccccc3)cc2Cl)CC1 [Compound I-104]
6.74	CC(=O)N[C@@H](C)CO[C@H]1CC[C@H](Oc2ncc(-c3ccccc3)cc2C#N)CC1 [Compound I-105]

Same assay, conditions: Tables 155-159

pIC50	Structure (SMILES)
7.01	CC(=O)N[C@@H](C)CO[C@H]1C[C@H](COc2ccc3nc(C(C)(F)F)sc3c2F)C1 [Compound I-107]
6.10	CC(=O)N[C@@H](C)CO[C@H]1C[C@H](COc2ccc3nc(C(C)(F)F)sc3c2Cl)C1 [Compound I-108]
6.83	CC(=O)N[C@@H](C)CO[C@H]1C[C@H](COc2ccc3nc(C(C)(C)O)sc3c2F)C1 [Compound I-109]
7.57	CCOc1nc2cc(Cl)c(OC[C@H]3C[C@H](OC[C@H](C)NC(C)=O)C3)cc2s1 [Compound I-110]
7.59	CCOc1nc2ccc(OC[C@H]3C[C@H](OC[C@H](C)NC(C)=O)C3)cc2s1 [Compound I-111]
7.51	CC(=O)N[C@@H](C)CO[C@H]1CC[C@H](Oc2ccc3nc(OC(C)CF)sc3c2Cl)CC1 (some centres unmarked) [Compound I-112]
8.00	CC(=O)N[C@@H](C)CO[C@H]1CC[C@H](Oc2ccc3nc(OC(C)C)sc3c2Cl)CC1 [Compound I-113]
6.71	CC(=O)N[C@@H](C)CO[C@H]1CC[C@H](Oc2cc3sc(OC(C)C)nc3cc2Cl)CC1 [Compound I-114]
7.92	CCOc1nc2ccc(OC[C@]3(F)C[C@@H](OC[C@H](C)NC(C)=O)C3)c(F)c2s1 [Compound I-115]
7.39	CCOc1nc2ccc(OC[C@]3(F)C[C@@H](OC[C@H](C)NC(C)=O)C3)c(Cl)c2s1 [Compound I-116]
8.15	CC(=O)N[C@@H](C)CO[C@H]1CC[C@H](Oc2ccc3nc(C4(F)CC4)sc3c2F)CC1 [Compound I-117]
8.00	CC(=O)N[C@@H](C)CO[C@H]1CC[C@H](Oc2ccc3nc(OC4CC4)sc3c2F)CC1 [Compound I-118]
8.40	CC(=O)N[C@@H](C)CO[C@H]1CC[C@H](Oc2ccc3nc(OCC4CC4)sc3c2F)CC1 [Compound I-119]
7.66	CC(=O)N[C@@H](C)CO[C@H]1CC[C@H](Oc2ccc3nc(OCC4(F)COC4)sc3c2F)CC1 [Compound I-120]
8.05	CC(=O)N[C@@H](C)CO[C@H]1CC[C@H](Oc2ccc3nc(OCC(F)(F)F)sc3c2F)CC1 [Compound I-121]
7.92	CC(=O)N[C@@H](C)CO[C@H]1CC[C@H](Oc2ccc3nc(OC(C)C)sc3c2F)CC1 [Compound I-122]
7.82	CC(=O)N[C@@H](C)CO[C@H]1CC[C@H](Oc2ccc3nc(OCC(F)F)sc3c2F)CC1 [Compound I-123]
7.43	CC(=O)N[C@@H](C)CO[C@H]1CC[C@H](Oc2ccc3nc(Cl)sc3c2F)CC1 [Compound I-124]
7.54	CC(=O)N[C@@H](C)CO[C@H]1CC[C@H](Oc2ccc3nc(OC4(C)CC4)sc3c2F)CC1 [Compound I-125]
6.40	CC(=O)N[C@@H](C)CO[C@H]1C[C@H](COc2cc3sc(C(C)C)nc3cn2)C1 [Compound I-126]
7.08	CC(=O)N[C@@H](C)CO[C@H]1C[C@H](COc2ccc3nc(C(C)C)sc3c2F)C1 [Compound I-127]
7.30	CC(=O)N[C@@H](C)CO[C@H]1C[C@H](COc2ccc3nc(C(C)C)sc3c2)C1 [Compound I-128]

pIC50	Structure (SMILES)
6.86	CC(=O)N[C@@H](C)CO[C@H]1CC[C@H](Oc2ccc3nc(OCC(C)(C)O)sc3c2F)CC1 [Compound I-129]
7.24	CC(=O)N[C@@H](C)CO[C@H]1CC[C@H](Oc2ccc3nc(OC4COC4)sc3c2F)CC1 [Compound I-130]
6.48	CC(=O)N[C@@H](C)CO[C@H]1CC[C@H](Oc2ccc3nc(OCC(C)(C)OC4CCCCO4)sc3c2F)CC1 (some centres unmarked) [Compound I-131]
7.32	CC(=O)N[C@@H](C)CO[C@H]1C[C@H](COc2c(F)cc3nc(C(C)C)sc3c2Cl)C1 [Compound I-132]
7.11	CC(=O)N[C@@H](C)CO[C@H]1C[C@H](COc2cc3sc(C(C)C)nc3cc2F)C1 [Compound I-133]
7.64	CC(=O)N[C@@H](C)CO[C@H]1CC[C@H](Oc2ccc3nc(C4(F)COC4)sc3c2F)CC1 [Compound I-134]
7.80	CC(=O)N[C@@H](C)CO[C@H]1C[C@H](COc2ccc3nc(C(C)C)sc3n2)C1 [Compound I-135]
7.06	CC(=O)N[C@@H](C)CO[C@H]1C[C@](F)(COc2ccc3nc(C(C)(F)F)sc3c2F)C1 [Compound I-136]
6.39	CC(=O)N[C@@H](C)CO[C@H]1C[C@](F)(COc2ccc3nc(C(C)(F)F)sc3c2Cl)C1 [Compound I-137]
7.04	CC(=O)N[C@@H](C)CO[C@H]1C[C@H](COc2ccc3nc(C4(F)CC4)sc3c2F)C1 [Compound I-138]
7.05	CC(=O)N[C@@H](C)CO[C@H]1C[C@H](COc2ccc3nc(C(C)(F)F)sc3c2)C1 [Compound I-139]
6.84	CC(=O)N[C@@H](C)CO[C@H]1C[C@H](COc2ccc3nc(OC[C@@H](C)F)sc3c2)C1 [Compound I-140]
7.10	CC(=O)N[C@@H](C)CO[C@H]1C[C@H](COc2c(Cl)cc3nc(C(C)C)sc3c2Cl)C1 [Compound I-141]
6.74	C[C@@H](CO[C@H]1CC[C@H](Oc2ccc3nc(C(C)(F)F)sc3c2F)CC1)NS(C)(=O)=O [Compound I-142]
6.92	C[C@@H](CO[C@H]1CC[C@H](Oc2ccc3nc(C(C)(F)F)sc3c2F)CC1)NC(=O)CO [Compound I-143]
6.90	CC(=O)N[C@@H](C)CO[C@H]1C[C@](F)(COc2ccc3nc(C(C)C)sc3n2)C1 [Compound I-144]
6.72	CCC(O)(CC)c1nc2ccc(O[C@H]3CC[C@H](OC[C@H](C)NC(C)=O)CC3)c(F)c2s1 [Compound I-145]
7.36	CC(=O)N[C@@H](C)CO[C@H]1CC[C@H](Oc2ccc3nc(C4(O)CCCC4)sc3c2F)CC1 [Compound I-146]
7.92	CC(=O)N[C@@H](C)CO[C@H]1C[C@H](COc2ccc3nc(C(C)(F)F)sc3n2)C1 [Compound I-147]
6.39	CC(=O)N[C@@H](C)CO[C@H]1C[C@H](COc2ccc3nc(C(C)(C)O)sc3c2)C1 [Compound I-148]
7.20	CC(=O)N[C@@H](C)CO[C@H]1CC[C@H](Oc2ccc3nc(OCC(C)(C)C#N)sc3c2F)CC1 [Compound I-149]
7.44	CC(=O)N[C@@H](C)CO[C@H]1CC[C@H](Oc2ccc3nc(OCC4(C#N)CC4)sc3c2F)CC1 [Compound I-150]
